US20260283983A1, “PHARMACEUTICAL COMPOSITIONS FOR WOUND CARE” (BIO PROTECTANT TECHNOLOGIES, INC., priority 2023, published 2026)
Converted amounts (≈) assume the structure as drawn. Where a SMILES comes first, the peptide text is derived from it. Bridges are numbered along the chain shown (N, C = ends). [ ]: non-standard residue; d: D form. The star is where a group is joined. Ileψ(thiazoline)Cys = CC[C@H](C)[C@H](N)C1=N[C@H](C(=O)*)CS1; dOrn = NCCC[C@@H](N)C(=O)O

Key:
[1] = system: Bioluminescent CA-MRSA strain MW2; test: MIC and MBC determination, bioluminescent CA-MRSA strain MW2; assay type: cell-based, S. aureus; conditions: Staphylococcus aureus
Description: (§1) The MIC and MBC of Formulation B was initially determined using a panel of S. aureus strains (Table 1) including laboratory S. aureus ATCC 6538, bioluminescent S. aureus strain Newman, bioluminescent CA-MRSA strain MW2, and a MRSA clinical isolate.

[2] = system: Bioluminescent S. aureus strain Newman; test: MIC and MBC determination, bioluminescent S. aureus strain Newman; assay type: cell-based; conditions: Staphylococcus aureus
Description: as §1

[3] = system: S. aureus ATCC 6538; test: MIC and MBC determination, S. aureus ATCC 6538; assay type: cell-based; conditions: Staphylococcus aureus
Description: as §1

[4] = system: bioluminescent MRSA (CA-MRSA); test: Murine model of wound healing (biopsy punch) infected with bioluminescent MRSA; assay type: in vivo; conditions: mice infected with 1×10^5 CFU bioluminescent MRSA; 20 μL topically three times daily; two week period; FIG. 1A
Procedure: An exemplary formulation (Formulation A) was tested in the murine model of wound healing (Dunn, Louise, et al. “Murine model of wound healing.” Journal of Visualized Experiments. 75 (2013): e50265-e50265).
• Biopsy punch model performed • Infected with 1×10^5 CFUs bioluminescent MRSA
Wound was imaged then treated with Formulation A
The animals were treated topically with 20 μL of Formulation A, bacitracin, or vehicle three times daily and imaged
The animals were imaged, weight, and their wound was measured daily
The animals were sacrificed and the bacterial burdens were checked in the wound, the liver, the spleen, and the blood.
Tracking of infection and wound healing in mice infected with 1×10^5 CFU bioluminescent MRSA and treated with 20 μL Formulation A, bacitracin (positive control), or vehicle control (N=5 for each treatment group). FIG. 1A: average radiance in the wound bed detected over a two week period. […] Statistical analysis was conducted in GraphPad Prism 6 using a two-way ANOVA test: ***p<0.001; ****p<0.0001. FIG. 1B: box and whisker plots of the wound area over time, beginning on day 4 after the removal of the surgical wound dressing. […] FIG. 1C: plot of the change in weight through the duration of infection and treatment.

[5] = system: MRSA clinical isolate; test: MIC and MBC determination, MRSA clinical isolate; assay type: cell-based, S. aureus; conditions: Staphylococcus aureus
Description: as §1

[6] = system: S. mutans; test: S. mutans quantitative biofilm reduction assay; assay type: cell-based; conditions: same treatment concentration; FIG. 6A-6C
Procedure: • Day 1: O/N culture of S. mutans • Day 2: Dilute O/N culture 1:9 in BHI • Place discs in 2 mL diluted culture and incubate 24 h • Day 3 Transfer discs to 2 mL BMGS (culture in BMGS for 1-3 days) • Day 4 1-Day: Transfer discs to 2 mL sterilants for desired incubation time • Transfer discs back to 2 mL BMGS for 24 h • 2-Day: Transfer discs to 2 mL BMGS and incubate for another 24 h • Day 5 1-Day: Sonicate disc and plate 100 μL of different dilutions • 2-Day: Transfer discs to 2 mL sterilants for desired incubation time • Transfer discs back to 2 mL BMGS for 24 h • Day 6 1-Day: Count plates • 2-Day: Sonicate disc and plate 100 μL of different dilutions • Day 7 Count plates

[7] = read-out: Minimum Bactericidal Concentration
[8] = read-out: Minimum Inhibitory Concentration

Compound | MBC [1, 7] | MIC [1, 8] | MBC [2, 7] | MIC [2, 8] | MBC ([3]; ATCC6538, read-out: Minimum Bactericidal Concentration) | MIC ([3]; ATCC6538, read-out: Minimum Inhibitory Concentration) | bacterial burden, average radiance in the wound bed [4] | MBC [5, 7] | MIC [5, 8] | biofilm accumulation after treatment [6]
CC[C@H](C)[C@H](N)C1=N[C@H](C(=O)N[C@@H](CC(C)C)C(=O)N[C@H](CCC(=O)O)C(=O)N[C@H](C(=O)N[C@H]2CCCCNC(=O)[C@H](CC(N)=O)NC(=O)[C@@H](CC(=O)O)NC(=O)[C@H](Cc3cnc[nH]3)NC(=O)[C@@H](Cc3ccccc3)NC(=O)[C@H]([C@@H](C)CC)NC(=O)[C@@H](CCCN)NC2=O)[C@@H](C)CC)CS1 [Bacitracin] ({Ileψ(thiazoline)Cys}-L[dE]IK[dOrn]I[dF]H[dD]N; lactam 4-C) | 333 µg/mL (≈ 234 µM) | 67 µg/mL (≈ 47.1 µM) | 333 µg/mL (≈ 234 µM) | 67 µg/mL (≈ 47.1 µM) | 67 µg/mL (≈ 47.1 µM) | 67 µg/mL (≈ 47.1 µM) | completely cleared infection within the first day | 67 µg/mL (≈ 47.1 µM) | 67 µg/mL (≈ 47.1 µM) | 
CCCCCCCCCCCCC[N+](C)(C)Cc1ccccc1 [BAK, benzalkonium chloride] |  |  |  |  |  |  |  |  |  | approximate equivalence
C12-C14 alkyl(ethylbenzyl)dimethylammonium chloride |  |  |  |  |  |  |  |  |  | approximate equivalence
